According to PubChem BioAssay AID1963969 (Molecular Pharmacology Branch, DTP, NCI, 2024):

Tested on: 817829-284-R-J1-PDC multi-cell spheroid viability
Assay: Anticancer human tumor 817829-284-R-J1-PDC patient-derived colon adenocarcinoma cell line growth inhibition [PI3K]
Settings: for IC50: curve of first compound; for viability, T/C: stronger effect = lower value
Procedure, shortened: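 Combination activity was assessed by viability in multicellular tumor spheroids carrying HUVEC and MSC components. Agents were tested with PI3K inhibitors from a Cmax-based top dose (or 10 microM) downward in half-log increments.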
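Note: spheroids exposed to agents for seven days before readout.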
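Throughout, for viability, T/C: percent of vehicle DMSO control viability which is 100%.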

Question: With CNC(=O)c1ccc(N2C(=S)N(c3ccc(C#N)c(C(F)(F)F)c3)C(=O)C2(C)C)cc1F + Cc1nc(NC(=O)N2CCCC2C(N)=O)sc1-c1ccnc(C(C)(C)C(F)(F)F)c1 as the compound, how does the IC50 (second compound 0.0316 µM) read?
Answer: The IC50 was over 10000 nM.

Question: What about the IC50 (second compound 0.1 µM) of the same compound?
Answer: The IC50 was over 10000 nM.

Question: What about the IC50 (second compound 0.316 µM) of the same compound?
Answer: The IC50 was over 10000 nM.

Question: And the IC50 (second compound 1 µM)?
Answer: Its IC50 is 6960 nM.

Question: And the IC50 (second compound 3.16 µM)?
Answer: The IC50 was 2350 nM.

Question: What about the IC50 (second compound 10 µM) of the same compound?
Answer: Its IC50 is 1150 nM.

Question: And the viability, T/C (second compound 0.0316 µM, first compound 0.0316 µM)?
Answer: The viability, T/C was 95.7%.

Question: And the viability, T/C (second compound 0.0316 µM, first compound 0.1 µM)?
Answer: Its viability, T/C is 102%.

Question: What about the viability, T/C (second compound 0.0316 µM, first compound 0.316 µM) of the same compound?
Answer: Its viability, T/C is 96.2%.

Question: And the viability, T/C (second compound 0.0316 µM, first compound 1 µM)?
Answer: Its viability, T/C is 90.2%.

Question: What about the viability, T/C (second compound 0.0316 µM, first compound 3.16 µM) of the same compound?
Answer: Its viability, T/C is 67.6%.

Question: And the viability, T/C (second compound 0.0316 µM, first compound 10 µM)?
Answer: Its viability, T/C is 84.6%.

Question: And the viability, T/C (second compound 0.1 µM, first compound 0.0316 µM)?
Answer: The viability, T/C was 69%.

Question: And the viability, T/C (second compound 0.1 µM, first compound 0.1 µM)?
Answer: Its viability, T/C is 77.8%.

Question: And the viability, T/C (second compound 0.1 µM, first compound 0.316 µM)?
Answer: Its viability, T/C is 87.4%.

Question: And the viability, T/C (second compound 0.1 µM, first compound 1 µM)?
Answer: Its viability, T/C is 69.3%.

Question: And the viability, T/C (second compound 0.1 µM, first compound 3.16 µM)?
Answer: The viability, T/C was 56.4%.

Question: And the viability, T/C (second compound 0.1 µM, first compound 10 µM)?
Answer: The viability, T/C was 68.2%.

Question: What about the viability, T/C (second compound 0.316 µM, first compound 0.0316 µM) of the same compound?
Answer: The viability, T/C was 106%.

Question: And the viability, T/C (second compound 0.316 µM, first compound 0.1 µM)?
Answer: The viability, T/C was 85.5%.

Question: And the viability, T/C (second compound 0.316 µM, first compound 0.316 µM)?
Answer: Its viability, T/C is 68.8%.

Question: What about the viability, T/C (second compound 0.316 µM, first compound 1 µM) of the same compound?
Answer: Its viability, T/C is 70.6%.

Question: What about the viability, T/C (second compound 0.316 µM, first compound 3.16 µM) of the same compound?
Answer: The viability, T/C was 77.2%.

Question: And the viability, T/C (second compound 0.316 µM, first compound 10 µM)?
Answer: Its viability, T/C is 63.3%.

Question: What about the viability, T/C (second compound 1 µM, first compound 0.0316 µM) of the same compound?
Answer: The viability, T/C was 60%.

Question: And the viability, T/C (second compound 1 µM, first compound 0.1 µM)?
Answer: The viability, T/C was 73.6%.

Question: And the viability, T/C (second compound 1 µM, first compound 0.316 µM)?
Answer: The viability, T/C was 68.7%.

Question: What about the viability, T/C (second compound 1 µM, first compound 1 µM) of the same compound?
Answer: The viability, T/C was 107%.

Question: What about the viability, T/C (second compound 1 µM, first compound 3.16 µM) of the same compound?
Answer: Its viability, T/C is 63.3%.

Question: And the viability, T/C (second compound 1 µM, first compound 10 µM)?
Answer: Its viability, T/C is 43.8%.

Question: What about the viability, T/C (second compound 3.16 µM, first compound 0.0316 µM) of the same compound?
Answer: Its viability, T/C is 67.3%.

Question: What about the viability, T/C (second compound 3.16 µM, first compound 0.1 µM) of the same compound?
Answer: The viability, T/C was 77.8%.

Question: What about the viability, T/C (second compound 3.16 µM, first compound 0.316 µM) of the same compound?
Answer: The viability, T/C was 81.8%.

Question: And the viability, T/C (second compound 3.16 µM, first compound 1 µM)?
Answer: Its viability, T/C is 58.3%.

Question: And the viability, T/C (second compound 3.16 µM, first compound 3.16 µM)?
Answer: Its viability, T/C is 48.5%.

Question: What about the viability, T/C (second compound 3.16 µM, first compound 10 µM) of the same compound?
Answer: Its viability, T/C is 34.5%.

Question: And the viability, T/C (second compound 10 µM, first compound 0.0316 µM)?
Answer: Its viability, T/C is 60%.

Question: And the viability, T/C (second compound 10 µM, first compound 0.1 µM)?
Answer: The viability, T/C was 70%.

Question: What about the viability, T/C (second compound 10 µM, first compound 0.316 µM) of the same compound?
Answer: The viability, T/C was 54.8%.

Question: And the viability, T/C (second compound 10 µM, first compound 1 µM)?
Answer: Its viability, T/C is 52.6%.

Question: And the viability, T/C (second compound 10 µM, first compound 3.16 µM)?
Answer: Its viability, T/C is 38.3%.

Question: What about the viability, T/C (second compound 10 µM, first compound 10 µM) of the same compound?
Answer: Its viability, T/C is 22.9%.

Question: Which results are given for Cn1cnc2c(F)c(Nc3ccc(Br)cc3Cl)c(C(=O)NOCCO)cc21 + Cc1nc(NC(=O)N2CCCC2C(N)=O)sc1-c1ccnc(C(C)(C)C(F)(F)F)c1?
Answer: IC50 (second compound 0.0316 µM): 289 nM; IC50 (second compound 0.1 µM): 319 nM; IC50 (second compound 0.316 µM): 160 nM; IC50 (second compound 1 µM): 135 nM; IC50 (second compound 3.16 µM): 574 nM; IC50 (second compound 10 µM): 293 nM; viability, T/C (second compound 0.0316 µM, first compound 0.00949 µM): 96.6%; viability, T/C (second compound 0.0316 µM, first compound 0.03 µM): 63%; viability, T/C (second compound 0.0316 µM, first compound 0.0949 µM): 67.3%; viability, T/C (second compound 0.0316 µM, first compound 0.3 µM): 44.5%; viability, T/C (second compound 0.0316 µM, first compound 0.949 µM): 50.2%; viability, T/C (second compound 0.0316 µM, first compound 3 µM): 22.4%; viability, T/C (second compound 0.1 µM, first compound 0.00949 µM): 80.8%; viability, T/C (second compound 0.1 µM, first compound 0.03 µM): 62.1%; viability, T/C (second compound 0.1 µM, first compound 0.0949 µM): 59.7%; viability, T/C (second compound 0.1 µM, first compound 0.3 µM): 46.8%; viability, T/C (second compound 0.1 µM, first compound 0.949 µM): 49.6%; viability, T/C (second compound 0.1 µM, first compound 3 µM): 31.2%; viability, T/C (second compound 0.316 µM, first compound 0.00949 µM): 82.2%; viability, T/C (second compound 0.316 µM, first compound 0.03 µM): 60.4%; viability, T/C (second compound 0.316 µM, first compound 0.0949 µM): 62.8%; viability, T/C (second compound 0.316 µM, first compound 0.3 µM): 39.6%; viability, T/C (second compound 0.316 µM, first compound 0.949 µM): 35.3%; viability, T/C (second compound 0.316 µM, first compound 3 µM): 22.8%; viability, T/C (second compound 1 µM, first compound 0.00949 µM): 67.7%; viability, T/C (second compound 1 µM, first compound 0.03 µM): 44.9%; viability, T/C (second compound 1 µM, first compound 0.0949 µM): 48.2%; viability, T/C (second compound 1 µM, first compound 0.3 µM): 62%; viability, T/C (second compound 1 µM, first compound 0.949 µM): 27.3%; viability, T/C (second compound 1 µM, first compound 3 µM): 29.4%; viability, T/C (second compound 3.16 µM, first compound 0.00949 µM): 118%; viability, T/C (second compound 3.16 µM, first compound 0.03 µM): 88.8%; viability, T/C (second compound 3.16 µM, first compound 0.0949 µM): 74.1%; viability, T/C (second compound 3.16 µM, first compound 0.3 µM): 70.2%; viability, T/C (second compound 3.16 µM, first compound 0.949 µM): 38.8%; viability, T/C (second compound 3.16 µM, first compound 3 µM): 24.4%; viability, T/C (second compound 10 µM, first compound 0.00949 µM): 74.8%; viability, T/C (second compound 10 µM, first compound 0.03 µM): 70%; viability, T/C (second compound 10 µM, first compound 0.0949 µM): 62.4%; viability, T/C (second compound 10 µM, first compound 0.3 µM): 50.4%; viability, T/C (second compound 10 µM, first compound 0.949 µM): 31.1%; viability, T/C (second compound 10 µM, first compound 3 µM): 11.5%
